Among the data in PubChem BioAssay AID179 (DTP/NCI, 2004) are EC50, IC50 and outcome values, retold here.

The assay concerns CEM cells HIV-1 protection, formazan growth assay. The experiment in a line: NCI AIDS Antiviral Assay. Particulars: for IC50: measured here: growth of uninfected CEM cells. Summed up: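 Screen of anti-HIV-1 activity in human CEM cells using a formazan-based growth measurement at five drug concentrations. Hits with 50% or greater protection were repeated, and confirmation required reproducible complete protection.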

Structures are written as SMILES. Active and inactive are the calls of the source.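 Rule for the calls: active = compounds giving half or more protection of infected cells from virus-caused growth loss, again on retest; inactive = the rest.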 Where a SMILES comes first, the peptide text is derived from it. The star is where a group is joined. Boc = CC(C)(C)OC(=O)*

Consider `Cc1cc(N(CCC#N)CCC#N)ccc1/C(N=Nc1cccc(Cl)c1)=N/NC(=O)c1cc(Cl)ccc1O`, for which the EC50 is above 200 µM and the half-inhibitory concentration (IC50) was 11.7 µM. On the same counts, the results for `O=C(Cc1ccccc1)NC(=O)Nc1ccccc1` are above 20.4 µM and above 20.4 µM. Consider `O=P1(N2CCOCC2)OCCO1`, for which the EC50 was above 200 µM and the IC50 is above 200 µM. With `O=Cc1cc(O)c(O)c(O)c1-c1c(C=O)cc(O)c(O)c1O`, the EC50 is above 174 µM and the IC50 turned out to be 34.7 µM. For the compound `COc1cccc(C=O)c1[O-].[O]=[U](=[O])([OH2+])[OH2+]`, the EC50 is above 79.4 µM and the IC50 was determined as 39.8 µM.

Regarding `Oc1[nH]c(=S)sc1/C=C1\C=Nc2ccccc21`, the EC50 is above 501 µM and the IC50 was determined as 195 µM. Take `CCOC(=O)C1(C)CCc2sc(N)c(C#N)c21` (stereo not given): the EC50 was 83.2 µM and the IC50 was found to be 158 µM. Regarding `O=S(=O)(c1ccccc1)N1CCCC(c2ccccc2)CC1` (stereo not given), the outcome was inactive.

In the case of `O=C1OC(=O)c2c1c(-c1ccccc1)cn2-c1ccc(Cl)cc1`, the outcome was inactive. As for `C=C1CN(S(=O)(=O)c2ccc(C)cc2)CCCN(CC(C)CC)CCCN(S(=O)(=O)c2ccc(C)cc2)C1` (stereo not given), the EC50 was above 58.9 µM and the IC50 is 2.57 µM. `CCCCCCN=Cc1c(O)c(O)c(C(C)C)c2cc(C)c(-c3c(C)cc4c(C(C)C)c(O)c(O)c(C=NCCCCCC)c4c3O)c(O)c12`: the EC50 is above 200 µM and the IC50 was 129 µM. Take `CCCCCCC(N)(CCCCCC)C(=O)Nn1c(C)ccc1C`: the EC50 is above 200 µM and the IC50 worked out at 16.2 µM.

On to `CCCNC(=O)Sc1ccccc1C(=O)N[C@H](C)C(N)=O`, for which the EC50 is above 4.68 µM. On to `COc1ccc(-n2cnc3c(NC(CCSC)C(=O)O)ncnc32)cc1` (stereo not given), for which the EC50 is 75.9 µM and the half-inhibitory concentration (IC50) is above 200 µM. For the compound `Cc1cccc(C(C)C)c1NC(=O)CC1C(=O)Nc2ccccc2S1(=O)=O` (stereo not given), the EC50 was above 7.08 µM and the half-maximal inhibitory concentration (IC50) is above 7.08 µM. Regarding `CC12CCC(C(Nc3cc(C(F)(F)F)cc(C(F)(F)F)c3)C1=O)C2(C)C` (stereo not given), the EC50 is above 200 µM and the IC50 is above 200 µM. Take `NC(N)=NCCC(O)(P(=O)(O)O)P(=O)(O)O`: the EC50 was above 200 µM and the half-maximal inhibitory concentration (IC50) is above 200 µM. Take `COC1=CC2(C=CC1=O)CCC(=O)O2` (stereo not given): the EC50 is 10.5 µM and the 50% inhibitory concentration (IC50) amounted to 174 µM. Consider `CC(C)CC1CC2C(=O)N(c3ccccc3)C(=O)C2c2[nH]c3ccccc3c21` (stereo not given), for which the outcome was inactive.

For `CN(C)c1nncc2n[nH]nc12`, the EC50 was above 200 µM and the half-maximal inhibitory concentration (IC50) is above 200 µM.

For the compound `c1cc2cc3c4c5c(cc6ccc7cc8cc9c%10c8c8c7c6c5c8c5c%10c(c1C9N1CCOCCOCCOCCOCCOCC1)c2c45)C3` (stereo not given), the EC50 is above 100 µM and the 50% inhibitory concentration (IC50) is above 100 µM.

Turning to `CCn1c(=O)ccc2ccc(N(CCO)CCO)nc21`, the EC50 is above 200 µM and the IC50 stood at 151 µM. In the case of `O=[N+]([O-])c1cccc2nc3ccccc3c(NCCc3ccccn3)c12`, the EC50 is above 2 µM and the IC50 was 0.0631 µM. As to `O=C1OCOC1C1OCOC1=O` (stereo not given), the EC50 was above 200 µM and the IC50 came out at 19.1 µM. `CC1Cn2c(Cc3ccccc3)nnc2S1` (stereo not given): the result was inactive. `Cn1c2ccccc2c2c3c(ccc21)C(=O)N(c1ccccc1)C3=O`: the EC50 was above 93.3 µM and the half-maximal inhibitory concentration (IC50) stood at 60.3 µM.

As to `CN(C)c1ccc(/C=C2/Oc3ccc(Cl)cc3C2=O)cc1`, the EC50 is above 4.79 µM and the 50% inhibitory concentration (IC50) was above 4.79 µM.

Turning to `Cn1cc2c(n1)c(N/N=C/c1ccccc1)nn1nnnc21`, the EC50 was above 89.1 µM and the IC50 was above 89.1 µM.

Regarding `CC(=O)c1sc2n(C)c(=O)c3ccccc3[n+]2c1C`, the EC50 is above 200 µM and the IC50 was above 200 µM.

As for `CC1CC(c2cccc3c2OCO3)=Nc2ccccc2S1` (stereo not given), the EC50 is above 17.4 µM and the concentration for half-maximal inhibition (IC50) is above 17.4 µM. `COc1ccc2nc3c([N+](=O)[O-])ccc(NCCN(C)C)c3c(N)c2c1`: the EC50 was above 200 µM and the half-maximal inhibitory concentration (IC50) amounted to 0.794 µM. On to `CCOC#CCCOCc1ccccc1`, for which the EC50 is above 66.1 µM and the concentration for half-maximal inhibition (IC50) is above 66.1 µM. Take `O=C1c2c(Br)sc(Br)c2C(NC(=O)C(F)(F)F)C1O` (stereo not given): the EC50 is above 200 µM and the 50% inhibitory concentration (IC50) is 35.5 µM.

Take `COc1nn(Cc2ccccn2)c2ccc([N+](=O)[O-])cc12`: the EC50 is above 200 µM and the half-inhibitory concentration (IC50) was 135 µM. For `c1ccc(-c2ccc(N=NN3CCCC3)cc2)cc1`, the EC50 is above 200 µM and the IC50 came to 14.8 µM.

`COc1cc(-c2cc(-c3cc(C)cc(Cl)c3O)nc3ncnc(N)c23)ccc1O`: the EC50 is above 200 µM and the IC50 is 10.7 µM. On the same counts, the results for `CC(=Nc1ccccc1C(=O)[O-])c1c([O-])ccc2c(C)cc(=O)oc12.[Cu+2].[OH3+]` are above 1.32 µM and above 1.32 µM. As to `O=Nc1cc(S(=O)(=O)O)c2cccnc2c1O`, the EC50 is above 200 µM and the IC50 is 52.5 µM. `OC(c1ccccc1)c1c(-c2ccccc2)oc(-c2ccccc2)c1C(O)c1ccccc1` (stereo not given): the outcome was inactive.

Consider `O=C(O)C(O[N+](=O)[O-])c1ccccc1` (stereo not given), for which the result was inactive. On to `O=C(CCCl)NNC1=NCCN1`, for which the EC50 is above 200 µM and the 50% inhibitory concentration (IC50) is above 200 µM. As to `CCOc1ccccc1N=Nc1c(-c2ccccc2)nn(C(=O)CC(=O)Nc2cccc(C)c2)c1-c1ccccc1`, the EC50 is above 25.1 µM and the IC50 was above 25.1 µM.

Regarding `CC1(C)O[C@H]2OC(CO)C(N=[N+]=[N-])[C@H]2O1` (stereo not given in full), the EC50 is above 200 µM and the half-inhibitory concentration (IC50) is above 200 µM. Regarding `CC(C)c1ccc(C=Nc2ccc(SSc3ccc(N=Cc4ccc(C(C)C)cc4)cc3)cc2)cc1`, the EC50 is above 200 µM and the IC50 is 29.5 µM. Turning to `COc1ccc(C2ON(c3ccccn3)CC=C2C)cc1` (stereo not given), the EC50 was above 91.2 µM and the IC50 amounted to 83.2 µM.

For the compound `O=[N+]([O-])c1ccccc1Oc1ccccc1`, the EC50 was 55 µM and the half-inhibitory concentration (IC50) came to 87.1 µM. Consider `Nc1ncnc2c1ncn2C1CC(CO)C(CO)O1` (stereo not given), for which the outcome was inactive. In the case of `CC#CCCCC1(C)CCNC1=S` (stereo not given), the EC50 was above 200 µM and the half-maximal inhibitory concentration (IC50) was above 200 µM. Turning to `Cc1ncc(CC#N)c2c1OC(C)(C)OC2`, the EC50 is above 1150 µM and the IC50 is above 1150 µM. As to `COc1cc(C2c3cc4c(c(O)c3C[C@H]3COC(=O)[C@@H]23)OCO4)cc(OC)c1O` (stereo not given in full), the EC50 is above 200 µM and the IC50 was 0.0631 µM.

On to `[N-]=[N+]=Nc1ccc2c(c1)Sc1ccccc1N2CCCCN1CCN(Cc2ccc(C(=O)c3ccc(CSCC(N)C(=O)O)cc3)cc2)CC1` (stereo not given), for which the EC50 was above 200 µM and the 50% inhibitory concentration (IC50) was 32.4 µM. `CC1(Br)C(=O)NC(=O)N([C@H]2C[C@H](O)[C@@H](CO)O2)C1N=[N+]=[N-]` (stereo not given in full): the 50% effective concentration (EC50) was 145 µM and the concentration for half-maximal inhibition (IC50) is above 200 µM.

As to `Nc1nc(Cl)cc(OCC2(CO)CC(OCc3ccccc3)C2)n1` (stereo not given), the EC50 is above 200 µM and the IC50 amounted to 41.7 µM. Turning to `CC(C)CC(NC(=O)C(O)C(N)Cc1ccccc1)C(=O)O` (stereo not given), the EC50 is above 17 µM and the IC50 is above 17 µM. For `Cc1ccc(C=C2C(=O)NC(=O)NC2=O)cc1`, the EC50 was above 155 µM and the IC50 is above 155 µM. Take `O=C1CCCCC/C1=C\c1cccc([N+](=O)[O-])c1`: the EC50 is above 200 µM and the concentration for half-maximal inhibition (IC50) is 23.4 µM. In the same order, the values of `C1CN(CCSSCCN2CCOCC2)CCO1` are above 200 µM and 166 µM. In the same order, the values of `O=C(CC1Sc2ccccc2NC1=O)Nc1ccccc1[N+](=O)[O-]` (stereo not given) are above 724 µM and 70.8 µM. Take `COI1NC(=O)c2ccccc21`: the half-maximal effective concentration (EC50) was 17.4 µM and the IC50 amounted to 295 µM. Take `COC(=O)[C@H](C)N(C)C(=O)[C@H](C)N1[C@@H](c2ccccc2)COC1(C)C`: the EC50 is above 200 µM and the half-maximal inhibitory concentration (IC50) was above 200 µM. Consider `CC1=C(C(=O)NNC(=O)Cc2ccccc2)CC(C(=O)NNC(=O)Cc2ccccc2)=C(C)N1`, for which the EC50 was above 200 µM and the IC50 was found to be 36.3 µM.

`COC(=O)C1=CC2OC1(C)C1(CC1)C2=O` (stereo not given): the outcome was inactive. For `COC(=O)CN1Cc2cc(C)cc(c2O)CN(CC(=O)OC)Cc2cc(C)cc(c2O)CN(CC(=O)OC)Cc2cc(C)cc(c2O)C1`, the EC50 is above 200 µM and the half-inhibitory concentration (IC50) was found to be 19.5 µM. On to `CCC1CN2CCc3cc(OC)c(OC)cc3C2CC1CC1c2cc(OC)c(OC)cc2CCN1C(=O)C(N)Cc1ccccc1` (stereo not given), for which the result was inactive. Turning to `COC(=O)C(Cc1c[nH]c2ccccc12)NC(=O)C(Cc1c[nH]c2ccccc12)NC(=O)C(Cc1c[nH]c2ccccc12)NC(=O)C(Cc1c[nH]c2ccccc12)NC(=O)C(Cc1c[nH]c2ccccc12)NC(=O)C(Cc1c[nH]c2ccccc12)NC(=O)C(Cc1c[nH]c2ccccc12)NC(=O)C(Cc1c[nH]c2ccccc12)NC(=O)OC(C)(C)C` (stereo not given) (Boc-WWWWWWWW-OMe; configuration not given here), the EC50 was above 100 µM and the IC50 is 40.7 µM. `Cc1ccc(S(=O)(=O)NN=C2CCCCCCCCCCC2)cc1`: the EC50 was above 200 µM and the half-inhibitory concentration (IC50) is above 200 µM.

Regarding `COc1ccc(/C=C(/C(=O)c2ccccc2)c2ccccc2)cc1`, the EC50 is above 8.71 µM and the half-inhibitory concentration (IC50) was above 8.71 µM.

For the compound `COC(=O)CCC1(CCC(=O)OC)CCCCCCC(CCC(=O)OC)(CCC(=O)OC)C(=O)C1=O`, the EC50 is above 200 µM and the half-inhibitory concentration (IC50) is above 200 µM.

Regarding `c1ccc(Cn2cc(CCc3ccncc3)c3ccccc32)cc1`, the EC50 was above 200 µM and the half-maximal inhibitory concentration (IC50) worked out at 28.2 µM. On to `N#Cc1ccc2oc3ccc(C#N)cc3c(=O)c2c1`, for which the result was inactive. For `COc1ccc(-c2cc(=O)c3c(C)cc(O)cc3o2)cc1`, the EC50 was 81.3 µM and the IC50 is 115 µM. As for `CCNc1cc2c3c(c1)CCN3CCC2`, the EC50 is above 60.3 µM and the 50% inhibitory concentration (IC50) was 10.2 µM. For the compound `CC(C)(C)OC(=O)N1CCCC1C(=O)NCCNc1ccc(NCCNC(=O)C2CCCN2C(=O)OC(C)(C)C)c2c1C(=O)c1ccccc1C2=O` (stereo not given), the EC50 is above 151 µM and the IC50 was found to be 6.61 µM.
